Test results as given in patent US20260116868A1 (Arcus Biosciences, Inc., priority 2023, published 2026).

These compounds were tested against T1, Cbl-b (Homo sapiens, UniProt Q13191) (assay: Cbl-b probe displacement HTRF binding assay). Details: 0.4 nM Cbl-b, 150 nM BODIPY probe.
T1 construct: biotin (biotinylated protein)
Experimental: The affinity with which compounds of the present disclosure bind to Cbl-b was assessed using probe displacement homologous time resolved fluorescence (HTRF) assays. The assays used a BODIPY™ conjugated probe (Example 54 from WO 2020264398) and biotinylated Cbl-b. The assays were performed in assay buffer consisting of 20 mM Hepes, 150 mM NaCl, 0.01% Triton X-100, 0.5 mM TCEP, 0.01% BSA. On the day of the assay, a 20 point, 1:2 master serial dilution of each compound was prepared in DMSO to span a final concentration range of […] to 0 nM. Two hundred nanoliters of diluted compound was added to each well of a 384-well plate. Fifteen microliters of biotinylated- Cbl-b resuspended in assay buffer were added to each well and the plate incubated for 60 minutes at room temperature prior to addition of 5 μL of BODIPY™ probe in assay buffer. Final assay conditions included 0.4 nM of Cbl-b and 150 nM of BODIPY™ probe. After a further 15 minutes of incubation at room temperature, 5 μl of Streptavidin-Terbium cryptate reagent at 5-fold final concentration was added to each well of the 384-well plate. Binding of a probe to Cbl-b results in an increase of HTRF signal. HTRF signal was measured by Envision plate reader, while competition of a compound of the present disclosure with probe results in a decrease of signal. Percentage maximum activity in each test well was calculated based on DMSO (maximum activity, 0% displacement) and no protein control wells (baseline activity, 100% displacement). Binding affinity was determined from a dose response curve fitted using a standard four parameter fit equation. See Table 7 for data for compounds (Cbl-b Binding (IC50)).

T1 sequence (Q13191 whole entry, species assumed): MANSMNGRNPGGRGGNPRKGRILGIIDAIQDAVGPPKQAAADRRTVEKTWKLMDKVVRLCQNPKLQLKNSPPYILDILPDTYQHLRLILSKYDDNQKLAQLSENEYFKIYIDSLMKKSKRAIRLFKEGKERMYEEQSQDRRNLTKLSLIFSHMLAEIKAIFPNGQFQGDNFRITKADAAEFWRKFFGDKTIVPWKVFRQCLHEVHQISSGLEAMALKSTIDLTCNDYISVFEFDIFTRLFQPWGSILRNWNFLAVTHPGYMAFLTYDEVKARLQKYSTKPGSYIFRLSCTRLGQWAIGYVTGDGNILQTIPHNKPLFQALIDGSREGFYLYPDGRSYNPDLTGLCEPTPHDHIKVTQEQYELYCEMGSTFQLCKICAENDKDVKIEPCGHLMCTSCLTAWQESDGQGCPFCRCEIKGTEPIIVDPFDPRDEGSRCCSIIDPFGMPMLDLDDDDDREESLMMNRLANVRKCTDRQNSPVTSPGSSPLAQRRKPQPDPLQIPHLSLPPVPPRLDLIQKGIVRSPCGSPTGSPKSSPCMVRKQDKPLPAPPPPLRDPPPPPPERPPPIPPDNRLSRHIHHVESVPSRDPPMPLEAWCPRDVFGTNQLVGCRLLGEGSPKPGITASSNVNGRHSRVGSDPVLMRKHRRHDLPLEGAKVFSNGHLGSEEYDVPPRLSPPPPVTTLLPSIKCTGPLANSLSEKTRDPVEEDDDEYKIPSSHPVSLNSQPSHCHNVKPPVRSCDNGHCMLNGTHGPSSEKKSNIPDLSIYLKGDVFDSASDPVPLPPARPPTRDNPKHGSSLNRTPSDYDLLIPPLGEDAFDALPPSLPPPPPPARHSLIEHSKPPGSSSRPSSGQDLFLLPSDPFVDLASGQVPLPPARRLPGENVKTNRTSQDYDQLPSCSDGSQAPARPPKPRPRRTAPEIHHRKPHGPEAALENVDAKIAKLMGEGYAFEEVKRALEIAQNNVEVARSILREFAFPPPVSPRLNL

IC50, < 100 nM:
CCOc1cc(-c2ccc(Cl)cc2C(=O)N2CC(F)(F)C2)cc(NC(=O)c2cc(CNCC3(F)CCC3)cn(C3CC3)c2=O)n1 [Example 121, N-(4-{4-chloro-2-[(3,3-difluoro-1-azetidinyl)carbonyl]phenyl}-6-ethoxy-2-pyridyl)-1-cyclopropyl-5-({[(1-fluorocyclobutyl)methyl]amino}methyl)-2-oxo-1,2-dihydronicotinamide]
CCOc1cc(-c2ccc(Cl)cc2C(=O)N2CC(F)(F)C2)cc(NC(=O)c2cc(CN[C@@H](C)C3CCC3)cn(C3CC3)c2=O)n1 [Example 122, N-(4-{4-chloro-2-[(3,3-difluoro-1-azetidinyl)carbonyl]phenyl}-6-ethoxy-2-pyridyl)-5-{[(S)-1-cyclobutylethylamino]methyl}-1-cyclopropyl-2-oxo-1,2-dihydronicotinamide]
CCOc1cc(-c2ccc(Cl)cc2C(=O)N2CC(F)(F)C2)cc(NC(=O)c2cc(CNC[C@H](C)OC)cn(C3CC3)c2=O)n1 [Example 123, N-(4-{4-chloro-2-[(3,3-difluoro-1-azetidinyl)carbonyl]phenyl}-6-ethoxy-2-pyridyl)-1-cyclopropyl-5-{[(S)-2-methoxypropylamino]methyl}-2-oxo-1,2-dihydronicotinamide]
CCOc1cc(-c2ccc(Cl)cc2C(=O)N2CC(F)(F)C2)cc(NC(=O)c2cc(CN[C@@H](C)C3CC3)cn(C3CC3)c2=O)n1 [Example 124]
CO[C@@H](C)[C@H](C)NCc1cc(C(=O)Nc2cc(-c3c(F)cc(C#N)cc3C(=O)N3CC(F)(F)C3)cc(C3CC3)n2)c(=O)n(C2CC2)c1 [Example 125, N-(4-{4-cyano-2-[(3,3-difluoro-1-azetidinyl)carbonyl]-6-fluorophenyl}-6-cyclopropyl-2-pyridyl)-1-cyclopropyl-5-{[(1S,2S)-2-methoxy-1-methylpropylamino]methyl}-2-oxo-1,2-dihydronicotinamide]
CC(C)Oc1cc(-c2c(F)cc(C#N)cc2C(=O)N2CC(F)(F)C2)cc(NC(=O)c2cc(CN[C@@H](C)C3CCC3)cn(C3CC3)c2=O)n1 [Example 126]
CO[C@@H](C)CNCc1cc(C(=O)Nc2cc(-c3c(F)cc(C#N)cc3C(=O)N3CC(F)(F)C3)cc(OC(C)C)n2)c(=O)n(C2CC2)c1 [Example 127, N-(4-{4-cyano-2-[(3,3-difluoro-1-azetidinyl)carbonyl]-6-fluorophenyl}-6-isopropoxy-2-pyridyl)-1-cyclopropyl-5-{[(S)-2-methoxypropylamino]methyl}-2-oxo-1,2-dihydronicotinamide]
CC(C)CNCc1cc(C(=O)Nc2cc(-c3c(F)cc(C#N)cc3C(=O)N3CC(F)(F)C3)cc(OC(C)C)n2)c(=O)n(C2CC2)c1 [Example 128, N-(4-{4-cyano-2-[(3,3-difluoro-1-azetidinyl)carbonyl]-6-fluorophenyl}-6-isopropoxy-2-pyridyl)-1-cyclopropyl-5-[(isobutylamino)methyl]-2-oxo-1,2-dihydronicotinamide]
CC(C)CNCc1cc(C(=O)Nc2cc(-c3ccc(C#N)cc3C(=O)N3CC(F)(F)C3)cc(OCC(F)F)n2)c(=O)n(C2CC2)c1 [Example 129, N-(4-{4-cyano-2-[(3,3-difluoro-1-azetidinyl)carbonyl]phenyl}-6-(2,2-difluoroethoxy)-2-pyridyl)-1-cyclopropyl-5-[(isobutylamino)methyl]-2-oxo-1,2-dihydronicotinamide]
C[C@H](NCc1cc(C(=O)Nc2cc(-c3ccc(C#N)cc3C(=O)N3CC(F)(F)C3)cc(OCC(F)F)n2)c(=O)n(C2CC2)c1)C1CCC1 [Example 130, N-(4-{4-cyano-2-[(3,3-difluoro-1-azetidinyl)carbonyl]phenyl}-6-(2,2-difluoroethoxy)-2-pyridyl)-5-{[(S)-1-cyclobutylethylamino]methyl}-1-cyclopropyl-2-oxo-1,2-dihydronicotinamide]
